Changes are numbered by the printed parent chain.
Tests used:
Assay in all cases: GC-MS of volatile products (SPME)
Assay type in all cases: biochemical
Conditions in all cases: Tris-HCl pH 7.0, MgSO4, DTT, 10% glycerol, 30 C, 4 h; crude protein extract
[1] = molecular target: T1, ASS1 (Aquilaria sinensis, UniProt K9MQ67)
T1 construct: full-length ORF (1644 nt, 547 residues), pET-28a XhoI/BamHI, His-tag fusion, E. coli BL21(DE3); crude protein extract assayed

[2] = molecular target: T2, ASS3 (Aquilaria sinensis, UniProt K9MPP8)
T2 construct: full-length ORF (1644 nt, 547 residues), pET-28a fusion protein, E. coli; crude protein extract assayed
T2 sequence (K9MPP8 1-547): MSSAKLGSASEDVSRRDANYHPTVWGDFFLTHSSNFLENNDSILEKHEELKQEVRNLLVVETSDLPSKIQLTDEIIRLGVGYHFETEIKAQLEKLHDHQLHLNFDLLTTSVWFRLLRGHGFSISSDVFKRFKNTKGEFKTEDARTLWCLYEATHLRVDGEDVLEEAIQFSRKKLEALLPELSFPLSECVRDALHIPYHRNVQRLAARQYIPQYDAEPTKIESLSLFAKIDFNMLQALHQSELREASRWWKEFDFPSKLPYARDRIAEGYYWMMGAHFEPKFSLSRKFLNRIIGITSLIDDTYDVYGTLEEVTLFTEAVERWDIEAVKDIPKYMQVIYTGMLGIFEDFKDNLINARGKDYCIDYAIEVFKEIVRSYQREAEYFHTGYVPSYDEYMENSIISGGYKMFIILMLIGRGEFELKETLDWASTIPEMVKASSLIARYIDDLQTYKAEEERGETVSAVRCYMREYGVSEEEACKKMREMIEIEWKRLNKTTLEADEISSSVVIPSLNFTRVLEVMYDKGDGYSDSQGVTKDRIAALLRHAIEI

[3] = molecular target: T3, ASS2 (Aquilaria sinensis, UniProt K9MNV6)
T3 construct: full-length ORF (1644 nt, 547 residues), pET-28a fusion protein, E. coli; crude protein extract assayed
T3 sequence (K9MNV6 1-547): T2 sequence (K9MPP8 1-547) with E454K, R481K

T1 sequence (K9MQ67 entry or part of it): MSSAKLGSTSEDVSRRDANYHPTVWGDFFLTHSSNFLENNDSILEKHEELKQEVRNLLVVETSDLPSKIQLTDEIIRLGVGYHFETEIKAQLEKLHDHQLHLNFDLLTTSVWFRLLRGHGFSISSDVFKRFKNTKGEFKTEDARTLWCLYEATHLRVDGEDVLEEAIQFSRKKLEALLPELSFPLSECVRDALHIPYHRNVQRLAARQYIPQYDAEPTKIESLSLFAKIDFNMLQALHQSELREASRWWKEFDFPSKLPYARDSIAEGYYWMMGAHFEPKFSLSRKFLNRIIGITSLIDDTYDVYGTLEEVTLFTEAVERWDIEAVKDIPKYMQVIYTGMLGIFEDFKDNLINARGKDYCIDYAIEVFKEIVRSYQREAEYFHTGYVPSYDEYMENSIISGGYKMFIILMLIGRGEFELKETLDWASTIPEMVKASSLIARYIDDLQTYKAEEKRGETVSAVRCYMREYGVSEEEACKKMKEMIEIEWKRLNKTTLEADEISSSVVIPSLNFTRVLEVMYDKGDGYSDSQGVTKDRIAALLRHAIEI

CC(C)=CCC/C(C)=C/CC/C(C)=C/COP(=O)(O)OP(=O)(O)O [FPP]
GC-MS of volatile products (SPME) [1]: ASS1-3 did not accept geranyl diphosphate or geranylgeranyl diphosphate as a substrate, converting only FPP | GC-MS of volatile products (SPME) [2]: ASS1-3 did not accept geranyl diphosphate or geranylgeranyl diphosphate as a substrate, converting only FPP | GC-MS of volatile products (SPME) [3]: ASS1-3 did not accept geranyl diphosphate or geranylgeranyl diphosphate as a substrate, converting only FPP
